The target in test [1] is T1, TDO (Homo sapiens, UniProt P48775). Put plainly: A172 kynurenine cell-based assay. Also noted: This assay utilised cancer cells which expressed either TDO or IDO; endogenous in cells; host or cells: A172 (human glioblastoma). The note with it: A172 human glioblastoma cells, 48 hours, read-out: A172 Kynurenine cell based assay pIC50 (converted). An outline of the steps: (§1)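 First, A172 or SKOV3 cells were seeded in phenol red-free RPMI, 10% FCS, 2 mM L-glutamine, 500 μM L-tryptophan; SKOV3 received 500 ng/ml IFN-γ for IDO induction. Next came compound exposure, 48 hours, 37° C. Finally, cells were spun out, supernatant treated with Erhlich's reagent, absorbance read at 490 nm.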

Test [2] has as its target T2, IDO (Homo sapiens, UniProt P14902). Put plainly: hIDO biochemical coupled assay. The note with it: 45 μM L-tryptophan, read-out: hIDO biochemical assay pIC50 (converted).
In test [3] the target is T2, IDO. Description: SKOV3 kynurenine cell-based assay (IDO induced by IFN-γ). Set-up: IDO expression was induced in the SKOV3 cells by the addition of 500 ng/ml IFN-γ; endogenous in cells; host or cells: SKOV3 (human ovarian adenocarcinoma), induced with IFN-γ. To be noted: 48 hours, read-out: SKOV3 Kynurenine cell based assay pIC50 (converted). An outline of the steps: as §1

Test [4] deals with T1, TDO. Description: hTDO biochemical coupled assay. To be noted: 330 μM L-tryptophan, read-out: hTDO biochemical assay pIC50 (converted).
From the text: Two different assays were employed: 1. a cell-based assay for detecting the effect of test compounds on kynurenine production in two different cancer cell types. This assay utilised cancer cells which expressed either TDO or IDO and as such was used as a means of testing compound activity at these two enzymes in a cell-based context. 2. a TDO and IDO biochemical coupled assay which utilised recombinantly produced and purified TDO and IDO enzymes in combination with the enzyme formamidase. This coupled enzyme system allowed conversion of N-formylkynurenine produced by TDO or IDO activity to kynurenine which was then quantified by fluorescence following addition of Erhlich's Reagent The protocols for these are set out below.
Setting [5] is: SKOV3 human ovarian adenocarcinoma cells, 500 ng/ml IFN-γ, 500 μM L-tryptophan.
Where [6] appears, read: SKOV3 cells, IDO induced by 500 ng/ml IFN-γ.

T1 sequence (P48775 whole entry): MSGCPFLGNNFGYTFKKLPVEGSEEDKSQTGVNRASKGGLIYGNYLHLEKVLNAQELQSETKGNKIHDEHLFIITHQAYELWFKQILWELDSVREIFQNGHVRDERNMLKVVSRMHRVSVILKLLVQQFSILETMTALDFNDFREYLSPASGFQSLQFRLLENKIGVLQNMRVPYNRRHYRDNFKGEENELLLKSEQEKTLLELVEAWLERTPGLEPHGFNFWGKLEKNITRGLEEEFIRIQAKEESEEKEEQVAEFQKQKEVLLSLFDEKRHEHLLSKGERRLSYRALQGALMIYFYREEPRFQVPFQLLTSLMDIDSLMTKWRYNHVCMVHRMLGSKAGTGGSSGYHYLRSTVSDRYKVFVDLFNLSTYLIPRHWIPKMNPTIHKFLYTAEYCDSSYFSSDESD
T2 sequence (P14902 whole entry): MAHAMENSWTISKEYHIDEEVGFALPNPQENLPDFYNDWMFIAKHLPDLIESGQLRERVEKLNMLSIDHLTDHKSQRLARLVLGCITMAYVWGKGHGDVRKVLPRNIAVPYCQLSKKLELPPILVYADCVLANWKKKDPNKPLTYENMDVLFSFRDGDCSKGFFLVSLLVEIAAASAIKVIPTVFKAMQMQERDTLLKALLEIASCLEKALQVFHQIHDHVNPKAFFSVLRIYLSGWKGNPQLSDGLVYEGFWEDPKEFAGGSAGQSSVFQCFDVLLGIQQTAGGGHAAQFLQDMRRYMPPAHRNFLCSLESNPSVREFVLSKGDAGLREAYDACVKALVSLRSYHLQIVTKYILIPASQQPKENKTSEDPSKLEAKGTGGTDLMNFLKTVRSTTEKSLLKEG

Turning to `CN1C(=O)[C@@H]2CC[C@H]1CN(c1cc(Cl)cc3[nH]ncc13)C2` [Compound 435], the IC50 was less than 3.16 µM at TDO [1] (500 μM L-tryptophan); 3.24 to 31.6 µM on IDO [2] (17 minutes, room temperature); greater than 100 µM on IDO [3] (setting [5]); less than 3.16 µM on TDO [4] (17 minutes, room temperature).

With `O=C1N[C@H]2CC[C@@H]1CN(c1cc(Cl)cc3[nH]ncc13)C2` [Compound 393, (1R,5S)-3-(6-chloro-1H-indazol-4-yl)-3,6-diazabicyclo[3.2.2]nonan-7-one], the IC50 is less than 3.16 µM on TDO [1] (500 μM L-tryptophan); 0.055 µM on TDO [1]; 32.4 to 100 µM at IDO [2] (17 minutes, room temperature); 51.3 µM at IDO [2]; 38 µM on IDO [3] (setting [6]); 32.4 to 100 µM at IDO [3] (setting [5]). For the same molecule, the IC50 on TDO [4] (17 minutes, room temperature) was less than 3.16 µM; on TDO [4], 0.245 µM.

On to `O=C(Nc1cccc2[nH]ncc12)c1ccccc1` [Compound 9], for which the IC50 on IDO [2] (17 minutes, room temperature) was greater than 100 µM; on TDO [4] (17 minutes, room temperature), 32.4 to 100 µM.

For the molecule `Cc1noc(C)c1S(=O)(=O)Nc1cccc2[nH]ncc12` [Compound 3], the IC50 is greater than 100 µM at IDO [2] (17 minutes, room temperature) and 3.24 to 31.6 µM on TDO [4] (17 minutes, room temperature).

Regarding `CS(=O)(=O)N1CCN(c2cc(F)cc3[nH]ncc23)CC1` [Compound 44], the IC50 on IDO [2] (17 minutes, room temperature) was greater than 100 µM; at TDO [4] (17 minutes, room temperature) it was less than 3.16 µM.

For the molecule `O=S(=O)(Nc1cccc2[nH]ncc12)c1ccccc1` [Compound 2], the IC50 was greater than 100 µM on IDO [2] (17 minutes, room temperature) and 32.4 to 100 µM on TDO [4] (17 minutes, room temperature).

`CN(C)S(=O)(=O)Nc1cccc2[nH]ncc12` [Compound 7]: the IC50 is greater than 100 µM at IDO [2] (17 minutes, room temperature) and 32.4 to 100 µM at TDO [4] (17 minutes, room temperature).

Take `CC(=O)N(C)c1ccc(-c2cc(Cl)cc3[nH]ncc23)cc1` [Compound 248]: the IC50 at TDO [1] (500 μM L-tryptophan) is less than 3.16 µM; on IDO [2] (17 minutes, room temperature) it was 3.24 to 31.6 µM; on IDO [3] (setting [5]), 3.24 to 31.6 µM.

In the case of `CS(=O)(=O)N1CC2CCC1CN2c1cc(Cl)cc2[nH]ncc12` (stereo not shown) [Compound 230], the IC50 at TDO [1] (500 μM L-tryptophan) was less than 3.16 µM; at IDO [2] (17 minutes, room temperature), greater than 100 µM; at IDO [3] (setting [5]), 32.4 to 100 µM.

For `CN1C(=O)CCC12CCN(c1cc(Cl)cc3[nH]ncc13)CC2` [Compound 245], the IC50 at TDO [1] (500 μM L-tryptophan) was less than 3.16 µM; at IDO [2] (17 minutes, room temperature) it was 3.24 to 31.6 µM; on IDO [3] (setting [5]), 3.24 to 31.6 µM.

`Clc1cc(N2CCC(c3ncc[nH]3)CC2)c2cn[nH]c2c1` [Compound 235]: the IC50 on TDO [1] (500 μM L-tryptophan) is less than 3.16 µM; at IDO [2] (17 minutes, room temperature) it was greater than 100 µM; at IDO [3] (setting [5]), 3.24 to 31.6 µM.

With `CC(C)COc1cccc2[nH]ncc12` [Compound 262], the IC50 at TDO [1] (500 μM L-tryptophan) is greater than 100 µM; on IDO [2] (17 minutes, room temperature), greater than 100 µM; at IDO [3] (setting [5]), 3.24 to 31.6 µM.

With `CC(=O)N1CCN(c2cccc3cnn(C)c23)CC1` [Compound 38], the IC50 was 32.4 to 100 µM at IDO [2] (17 minutes, room temperature) and 32.4 to 100 µM at TDO [4] (17 minutes, room temperature).

Regarding `CC(=O)N1CC2CCC1CN2c1cc(Cl)cc2[nH]ncc12` (stereo not shown) [Compound 233], the IC50 on TDO [1] (500 μM L-tryptophan) is less than 3.16 µM; at IDO [2] (17 minutes, room temperature) it was 32.4 to 100 µM; on IDO [3] (setting [5]) it was 3.24 to 31.6 µM.

On to `CS(=O)(=O)N1CCN(c2cc(Cl)cc3[nH]ncc23)C2CCCCC21` (single isomer, unassigned) [Compound 386], for which the IC50 on TDO [1] (500 μM L-tryptophan) is 3.24 to 31.6 µM; on IDO [3] (setting [5]) it was 3.24 to 31.6 µM; at TDO [4] (17 minutes, room temperature), 3.24 to 31.6 µM.

Turning to `Cn1ncc2cccc(N3CCN(S(C)(=O)=O)CC3)c21` [Compound 37], the IC50 at IDO [2] (17 minutes, room temperature) was 32.4 to 100 µM; on TDO [4] (17 minutes, room temperature), 32.4 to 100 µM.

With `CS(=O)(=O)N1CCN(c2cc(OC(F)(F)F)cc3[nH]ncc23)CC1` [Compound 221], the IC50 is 3.24 to 31.6 µM at TDO [1] (500 μM L-tryptophan); greater than 100 µM on IDO [2] (17 minutes, room temperature); 32.4 to 100 µM at IDO [3] (setting [5]).

As for `O=C1NC2(CCN(c3cc(Cl)cc4[nH]ncc34)CC2)C(=O)N1c1ccccc1` [Compound 456], the IC50 on TDO [1] (500 μM L-tryptophan) is less than 3.16 µM; at IDO [2] (17 minutes, room temperature), less than 3.16 µM; on TDO [4] (17 minutes, room temperature), less than 3.16 µM.

`CC(C)c1cc(C2CCN(S(C)(=O)=O)CC2)c2cn[nH]c2c1` [Compound 223]: the IC50 was 3.24 to 31.6 µM at TDO [1] (500 μM L-tryptophan); 3.24 to 31.6 µM at IDO [2] (17 minutes, room temperature); 32.4 to 100 µM at IDO [3] (setting [5]).

With `CN(c1ccc(-c2cc(Cl)cc3[nH]ncc23)cc1)S(C)(=O)=O` [Compound 239], the IC50 was less than 3.16 µM on TDO [1] (500 μM L-tryptophan); 32.4 to 100 µM on IDO [2] (17 minutes, room temperature); 3.24 to 31.6 µM on IDO [3] (setting [5]).

Take `Cc1cc(-c2cc(Cl)cc3[nH]ncc23)ccc1S(C)(=O)=O` [Compound 254]: the IC50 on TDO [1] (500 μM L-tryptophan) was less than 3.16 µM; on IDO [2] (17 minutes, room temperature), 32.4 to 100 µM; at IDO [3] (setting [5]) it was 3.24 to 31.6 µM.

For `OC(c1cc(Cl)cc2[nH]ncc12)C1CCCCC1` (stereo not shown) [Compound 293], the IC50 at TDO [1] (500 μM L-tryptophan) was less than 3.16 µM; on IDO [2] (17 minutes, room temperature), greater than 100 µM; at IDO [3] (setting [5]), 32.4 to 100 µM.

Consider `COC(=O)C1CCN(c2cc(Cl)cc3[nH]ncc23)CC1` [Compound 234], for which the IC50 at TDO [1] (500 μM L-tryptophan) was less than 3.16 µM; on IDO [2] (17 minutes, room temperature), 3.24 to 31.6 µM; on IDO [3] (setting [5]) it was 32.4 to 100 µM.

For `CS(=O)(=O)NCCOc1cccc2[nH]ncc12` [Compound 35], the IC50 at IDO [2] (17 minutes, room temperature) was greater than 100 µM; on TDO [4] (17 minutes, room temperature), 3.24 to 31.6 µM.

On to `CC(C)CS(=O)(=O)Nc1cccc2[nH]ncc12` [Compound 8], for which the IC50 at IDO [2] (17 minutes, room temperature) was greater than 100 µM; on TDO [4] (17 minutes, room temperature), 3.24 to 31.6 µM.

Turning to `O=C(Nc1cccc2[nH]ncc12)C1CCOCC1` [Compound 5], the IC50 at IDO [2] (17 minutes, room temperature) is greater than 100 µM; on TDO [4] (17 minutes, room temperature), 32.4 to 100 µM.

As for `CS(=O)(=O)NC1CCCN(c2cc(Cl)cc3[nH]ncc23)C1` (stereo not shown) [Compound 229], the IC50 on TDO [1] (500 μM L-tryptophan) is 3.24 to 31.6 µM; on IDO [2] (17 minutes, room temperature) it was greater than 100 µM; on IDO [3] (setting [5]) it was 32.4 to 100 µM.

Take `CC(=O)NC1CCC(c2cc(Cl)cc3[nH]ncc23)CC1` (mixture of isomers) [Compound 155, N-(4-(6-chloro-1H-indazol-4-yl)cyclohexyl) acetamide]: the IC50 at TDO [1] (500 μM L-tryptophan) was less than 3.16 µM; at TDO [1], 0.24 µM; on IDO [2], 191 µM; at IDO [3] (setting [6]), 12.3 µM; on IDO [3] (setting [5]) it was 3.24 to 31.6 µM.

As to `O=C1NC2(CCO1)CCN(c1cc(Cl)cc3[nH]ncc13)CC2` [Compound 224], the IC50 at TDO [1] (500 μM L-tryptophan) was less than 3.16 µM; at IDO [2] (17 minutes, room temperature) it was 32.4 to 100 µM; on IDO [3] (setting [5]), 32.4 to 100 µM.

Regarding `CN(C1CCCN(c2cc(Cl)cc3[nH]ncc23)C1)S(C)(=O)=O` (stereo not shown) [Compound 242], the IC50 at TDO [1] (500 μM L-tryptophan) was 3.24 to 31.6 µM; at IDO [2] (17 minutes, room temperature), greater than 100 µM; at IDO [3] (setting [5]), 32.4 to 100 µM.

Take `CC(=O)N1CCN(c2cc(OC(F)(F)F)cc3[nH]ncc23)CC1` [Compound 244]: the IC50 at TDO [1] (500 μM L-tryptophan) was 32.4 to 100 µM; on IDO [2] (17 minutes, room temperature), greater than 100 µM; at IDO [3] (setting [5]), 32.4 to 100 µM.

On to `COC(=O)c1ccc(-c2cc(Cl)cc3[nH]ncc23)cc1` [Compound 240], for which the IC50 at TDO [1] (500 μM L-tryptophan) is less than 3.16 µM; on IDO [2] (17 minutes, room temperature) it was greater than 100 µM; at IDO [3] (setting [5]), 3.24 to 31.6 µM.

On to `CN(C1CCN(c2cc(Cl)cc3[nH]ncc23)C1)S(C)(=O)=O` (stereo not shown) [Compound 243], for which the IC50 at TDO [1] (500 μM L-tryptophan) is less than 3.16 µM; on IDO [2] (17 minutes, room temperature), 32.4 to 100 µM; on IDO [3] (setting [5]), 3.24 to 31.6 µM.

Consider `COc1cc(-c2cc(Cl)cc3[nH]ncc23)ccc1S(C)(=O)=O` [Compound 296], for which the IC50 on TDO [1] (500 μM L-tryptophan) is 3.24 to 31.6 µM; on IDO [2] (17 minutes, room temperature), greater than 100 µM; on IDO [3] (setting [5]), 3.24 to 31.6 µM.

Take `O=C(c1cc(Cl)cc2[nH]ncc12)N1CCCCC1` [Compound 274]: the IC50 on TDO [1] (500 μM L-tryptophan) was 3.24 to 31.6 µM; at IDO [2] (17 minutes, room temperature), greater than 100 µM; on IDO [3] (setting [5]), 32.4 to 100 µM.

For the molecule `CS(=O)(=O)Nc1ccc(-c2cc(Cl)cc3[nH]ncc23)cc1` [Compound 220], the IC50 is less than 3.16 µM at TDO [1] (500 μM L-tryptophan); greater than 100 µM at IDO [2] (17 minutes, room temperature); 3.24 to 31.6 µM at IDO [3] (setting [5]).

In the case of `O=C(NCc1ccccc1)c1cc(Cl)cc2[nH]ncc12` [Compound 237], the IC50 is 32.4 to 100 µM on TDO [1] (500 μM L-tryptophan); greater than 100 µM at IDO [2] (17 minutes, room temperature); 32.4 to 100 µM on IDO [3] (setting [5]).

The values are drawn from US10590086B2, “Pharmaceutical compound” (IOmet Pharma Ltd., priority 2014, dated 2020).
